Tested on: Fusarium patch disease
Assay: Fusarium patch on turfgrass in British Columbia Canada
Format: in vivo
Conditions: for % disease control vs untreated / mean # disease spots/plot: 0.6 kg/ha
Experimental: Creeping bentgrass was naturally inoculated with Fusarium patch disease. Four plots were assessed, and each plot was four square meters of mature turf. Four replicates were used per treatment. […] Azoxystrobin is a broad-spectrum fungicide with a single-site mode of action: it binds very tightly to the Qo site of Complex III in the mitochondrial electron transport chain of fungal pathogens. Thus the disease pest is prevented from generating ATP, so it dies for lack of metabolic energy. Azoxystrobin is itself extracted from certain Eastern European mushrooms reputed for their resistance to disease induced by other fungi. Azoxystrobin, marketed under the brand name of Heritage, is one of the commercial standards used in the management of Fusarium Patch disease on turf grass. It was against this reference that the efficacy of […] in controlling this pathogen was compared and contrasted.
Spray volume was one thousand liters per hectare. Three product applications were made. The interval between applications was 14 days.
Observations (disease symptoms, leaf damage due to product, and grass vigour) were made at the following intervals: • Immediately prior to each application. • Nine days after the last (third) application. • Sixty days after the last (third) application. • Ninety days after the last (third) application.

SMILES: CO/C=C(/C(=O)OC)c1ccccc1Oc1cc(Oc2ccccc2C#N)ncn1 [Azoxystrobin]
- % disease control vs untreated (Spring): 17%
- mean # disease spots/plot (Spring): 10
- % disease control vs untreated (Winter): 31%
- mean # disease spots/plot (Winter): 9
- reduction of disease incidence relative to the water-sprayed inoculated control (Azoxystrobin): 15-30%
